Data from the supplement of paper PMC10627819.

How the values were obtained:
B. subtilis 168 [1] = test: fitness (endpoint OD595 vs no drug) (fraction); higher = more growth
Procedure, shortened: (§1)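 Fitness is computed from the optical density at which cultures reach stationary phase, divided by the robust mean of no-drug control wells. Any value above 1 is set to 1. Cultures started at OD595 0.01 in 384-well plates with TSB, LB Lennox or CY at 37 °C, and OD595 was read every 30 min for 14 h against a first-reading background.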

S. pneumoniae D39V [2] = test: as above
Procedure, shortened: as §1

B. subtilis 168 [3] = test: Bliss interaction score (quartile over a dose matrix) (fitness difference); higher = more antagonism (negative = synergy)
Procedure, shortened: (§2)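 Fitness here means normalised growth, inferred for single drugs from the combination data. Growth was OD595 at entry into stationary phase, divided by the plate's robust no-drug mean and capped at 1. The Bliss score is observed minus expected fitness, with the expectation being the product, and its quartiles span technical, biological and donor/recipient replicates.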

S. aureus DSM 20231 = test: as above
Procedure, shortened: as §2

S. aureus Newman = test: as above
Procedure, shortened: as §2

S. pneumoniae D39V [4] = test: as above
Procedure, shortened: as §2
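Wherever Bliss interaction score (quartile over a dose matrix) is given: first quartile when negative (synergy) and third quartile when positive (antagonism).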
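Wherever fitness (endpoint OD595 vs no drug) is given: OD595 on entry to stationary phase over no-drug wells; at most 1.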

C[C@H]1COc2c(N3CCN(C)CC3)c(F)cc3c(=O)c(C(=O)O)cn1c23 [Levofloxacin] + CCN(CC)CCOC(=O)c1ccc(N)cc1 [Procaine]
fitness, one replicate
Conditions	first compound 0.001 µg/mL	first compound 0.002 µg/mL	first compound 0.0039 µg/mL	first compound 0.2 µg/mL	first compound 0.4 µg/mL	first compound 0.8 µg/mL
B. subtilis 168 [1], partner 85.5 µg/mL	0.882	0.83	0.861	–	–	–
B. subtilis 168 [1], partner 171 µg/mL	0.923	0.824	0.869	–	–	–
B. subtilis 168 [1], partner 342 µg/mL	0.912	0.849	0.872	–	–	–
S. pneumoniae D39V [2], partner 85.5 µg/mL	–	–	–	0.924	0.815	0.372
S. pneumoniae D39V [2], partner 171 µg/mL	–	–	–	≥ 1	0.853	0.49
S. pneumoniae D39V [2], partner 342 µg/mL	–	–	–	0.923	0.86	0.501

fitness
Conditions	first compound 0.0312 µg/mL	first compound 0.0625 µg/mL	first compound 0.125 µg/mL	first compound 0.1725 µg/mL	first compound 0.345 µg/mL	first compound 0.69 µg/mL
B. subtilis 168 [1], partner 85.5 µg/mL	0.0534	0.0358	0.0491	–	–	–
B. subtilis 168 [1], partner 171 µg/mL	0.0369	0.0387	0.0458	–	–	–
B. subtilis 168 [1], partner 342 µg/mL	0.0441	0.0408	0.0398	–	–	–
S. pneumoniae D39V [2], partner 85.5 µg/mL	–	–	–	0.937	0.878	0.602
S. pneumoniae D39V [2], partner 171 µg/mL	–	–	–	0.946	0.87	0.62
S. pneumoniae D39V [2], partner 342 µg/mL	–	–	–	0.918	0.877	0.625

Conditions	Bliss interaction score
B. subtilis 168 [3]	-0.0156
S. aureus DSM 20231	-0.108
S. aureus Newman	0.108
S. pneumoniae D39V [4]	0.053

C[C@H]1COc2c(N3CCN(C)CC3)c(F)cc3c(=O)c(C(=O)O)cn1c23 [Levofloxacin] + CN(C)c1cc(NC(=O)CNC(C)(C)C)c(O)c2c1C[C@H]1C[C@H]3[C@H](N(C)C)C(O)=C(C(N)=O)C(=O)[C@@]3(O)C(O)=C1C2=O [Tigecycline]
fitness, B. subtilis 168 [1], one replicate
Conditions	partner 0.039 µg/mL	partner 0.078 µg/mL	partner 0.125 µg/mL	partner 0.156 µg/mL	partner 0.25 µg/mL	partner 0.5 µg/mL
first compound 0.001 µg/mL	0.897	0.893	–	0.926	–	–
first compound 0.002 µg/mL	0.932	0.911	≥ 1	0.878	0.862	0.993
first compound 0.0039 µg/mL	0.847	0.855	0.985	0.971	0.955	0.887
first compound 0.0078 µg/mL	–	–	0.94	–	0.94	0.885

fitness
Conditions	first compound 0.0312 µg/mL	first compound 0.0625 µg/mL	first compound 0.125 µg/mL	first compound 0.1725 µg/mL	first compound 0.2 µg/mL	first compound 0.345 µg/mL	first compound 0.4 µg/mL	first compound 0.69 µg/mL	first compound 0.8 µg/mL
B. subtilis 168 [1], partner 0.039 µg/mL	0.0258	0.0305	0.0314	–	–	–	–	–	–
B. subtilis 168 [1], partner 0.078 µg/mL	0.0327	0.0457	0.0438	–	–	–	–	–	–
B. subtilis 168 [1], partner 0.156 µg/mL	0.0426	0.0476	0.0441	–	–	–	–	–	–
S. pneumoniae D39V [2], partner 0.65 µg/mL	–	–	–	0.96	0.853	0.88	0.712	0.456	0.301
S. pneumoniae D39V [2], partner 1.3 µg/mL	–	–	–	0.949	0.842	0.85	0.713	0.537	0.35
S. pneumoniae D39V [2], partner 2.6 µg/mL	–	–	–	0.926	0.81	0.835	0.705	0.544	0.321

Conditions	Bliss interaction score
B. subtilis 168 [3]	-0.0381
S. aureus DSM 20231	-0.101
S. aureus Newman	-0.045
S. pneumoniae D39V [4]	-0.132

CN(C)C(=O)C(CCN1CCC(O)(c2ccc(Cl)cc2)CC1)(c1ccccc1)c1ccccc1 [Loperamide] + CN[C@@H]1[C@H](O[C@H]2[C@H](O[C@H]3[C@H](O)[C@@H](O)[C@H](N=C(N)N)[C@@H](O)[C@@H]3N=C(N)N)O[C@@H](C)[C@]2(O)C=O)O[C@@H](CO)[C@H](O)[C@H]1O [Streptomycin]
fitness
Conditions	partner 2 µg/mL	partner 4 µg/mL	partner 8 µg/mL
B. subtilis 168 [1], first compound 25 µg/mL	0.643	0.106	0.0172
B. subtilis 168 [1], first compound 50 µg/mL	0.0768	0.0399	0.019
B. subtilis 168 [1], first compound 100 µg/mL	0.0865	0.0369	0.0223
S. pneumoniae D39V [2], first compound 17.14 µg/mL	0.941	0.98	0.961
S. pneumoniae D39V [2], first compound 20 µg/mL	–	≥ 1	0.987
S. pneumoniae D39V [2], first compound 34.28 µg/mL	0.948	0.992	0.967
S. pneumoniae D39V [2], first compound 40 µg/mL	–	0.997	≥ 1

fitness, S. pneumoniae D39V [2], one replicate
Conditions	first compound 20 µg/mL	first compound 40 µg/mL	first compound 68.57 µg/mL	first compound 80 µg/mL
partner 2 µg/mL	≥ 1	≥ 1	0.871	0.86
partner 4 µg/mL	–	–	0.973	–
partner 8 µg/mL	–	–	0.966	–
partner 16 µg/mL	0.918	0.931	–	0.107

Conditions	Bliss interaction score
B. subtilis 168 [3]	-0.0818
S. aureus DSM 20231	-0.236
S. aureus Newman	0.0869
S. pneumoniae D39V [4]	0.125

CN(C)C(=O)C(CCN1CCC(O)(c2ccc(Cl)cc2)CC1)(c1ccccc1)c1ccccc1 [Loperamide] + COc1ccc(C[C@H](N)C(=O)N[C@H]2[C@@H](O)[C@H](n3cnc4c(N(C)C)ncnc43)O[C@@H]2CO)cc1 [Puromycin]
fitness
Conditions	partner 0.39 µg/mL	partner 0.78 µg/mL	partner 1 µg/mL	partner 1.56 µg/mL	partner 2 µg/mL	partner 4 µg/mL
B. subtilis 168 [1], first compound 25 µg/mL	0.82	0.767	–	0.718	–	–
B. subtilis 168 [1], first compound 50 µg/mL	0.0429	0.038	–	0.0393	–	–
B. subtilis 168 [1], first compound 100 µg/mL	0.0261	0.0107	–	0.0233	–	–
S. pneumoniae D39V [2], first compound 17.14 µg/mL	–	–	0.999	–	0.965	0.872
S. pneumoniae D39V [2], first compound 34.28 µg/mL	–	–	0.988	–	0.952	0.813

fitness, S. pneumoniae D39V [2], one replicate
Conditions	first compound 20 µg/mL	first compound 40 µg/mL	first compound 68.57 µg/mL	first compound 80 µg/mL
partner 1 µg/mL	0.951	0.899	0.997	0.159
partner 2 µg/mL	0.951	0.93	0.956	0.129
partner 4 µg/mL	0.835	0.828	0.908	0.0785

Conditions	Bliss interaction score
B. subtilis 168 [3]	-0.121
S. aureus DSM 20231	-0.192
S. aureus Newman	-0.0477
S. pneumoniae D39V [4]	0.0779

CN(C)C(=O)C(CCN1CCC(O)(c2ccc(Cl)cc2)CC1)(c1ccccc1)c1ccccc1 [Loperamide] + CN(C)c1cc(NC(=O)CNC(C)(C)C)c(O)c2c1C[C@H]1C[C@H]3[C@H](N(C)C)C(O)=C(C(N)=O)C(=O)[C@@]3(O)C(O)=C1C2=O [Tigecycline]
fitness
Conditions	first compound 17.14 µg/mL	first compound 20 µg/mL	first compound 25 µg/mL	first compound 34.28 µg/mL	first compound 40 µg/mL	first compound 50 µg/mL	first compound 80 µg/mL	first compound 100 µg/mL
B. subtilis 168 [1], partner 0.039 µg/mL	–	–	0.894	–	–	0.132	–	0.0203
B. subtilis 168 [1], partner 0.078 µg/mL	–	–	0.832	–	–	0.0334	–	0.0305
B. subtilis 168 [1], partner 0.156 µg/mL	–	–	0.825	–	–	0.0355	–	0.0215
S. pneumoniae D39V [2], partner 0.65 µg/mL	0.945	0.995	–	0.993	0.991	–	0.0427	–
S. pneumoniae D39V [2], partner 1.3 µg/mL	≥ 1	0.931	–	0.991	0.977	–	0.0494	–
S. pneumoniae D39V [2], partner 2.6 µg/mL	≥ 1	0.944	–	0.98	0.995	–	0.0611	–

fitness, one replicate
Conditions	partner 0.125 µg/mL	partner 0.25 µg/mL	partner 0.5 µg/mL	partner 0.65 µg/mL	partner 1.3 µg/mL	partner 2.6 µg/mL
B. subtilis 168 [1], first compound 25 µg/mL	0.978	0.884	0.858	–	–	–
B. subtilis 168 [1], first compound 50 µg/mL	0.327	0.22	0.272	–	–	–
B. subtilis 168 [1], first compound 100 µg/mL	0.67	0.512	0.67	–	–	–
S. pneumoniae D39V [2], first compound 68.57 µg/mL	–	–	–	≥ 1	≥ 1	≥ 1

Conditions	Bliss interaction score
B. subtilis 168 [3]	0.115
S. aureus DSM 20231	-0.115
S. aureus Newman	0.0321
S. pneumoniae D39V [4]	0.084
